In ChEMBL document CHEMBL6078649, “Discovery of Chalcone Derivatives as Bifunctional Molecules with Anti-SARS-CoV-2 and Anti-inflammatory Activities” (J Nat Prod, 2024) one finds EC50 data, which are given here for four compounds.

In the test the test system is SARS-CoV-2. Briefly: Antiviral activity against SARS-CoV-2 infected in human Huh-7 cells harboring viral replicon/EGFP/Neo genes assessed as inhibition of EGFP expression incubated for 24 hrs. Type of test: functional, organism-based. The note with it: Severe acute respiratory syndrome coronavirus 2, Huh-7, 24 h.

On to `O=C(/C=C/c1c(Cl)c(O)c(O)c(O)c1Cl)c1ccc(F)cc1`, for which the EC50 worked out at 19.9 µM. Take `O=C(/C=C/c1cc(O)c(O)c(O)c1)c1ccc(F)cc1`: the concentration giving a half-maximal response (EC50) stood at 11.7 µM.

As for `CC(=O)Oc1c(Cl)c(/C=C/C(=O)c2ccc(F)cc2)c(Cl)c(OC(C)=O)c1OC(C)=O`, the concentration for a half-maximal effect (EC50) amounted to 40.3 µM. `O=C(CCc1cc(O)c(O)c(O)c1)c1ccc(F)cc1`: the EC50 is 32.1 µM.
